Consider 19 molecules from ChEMBL document CHEMBL1132084, “Thrombin inhibitors based on a propargylglycine template” (Bioorg Med Chem Lett, 1999).

Data set [1] concerns the target Prothrombin (Homo sapiens, UniProt P00734). The experiment in a line: Inhibition of human thrombin.
Data set [2] concerns the target Coagulation factor X (Homo sapiens, UniProt P00742). The experiment in a line: Inhibitory activity against factor Xa.
The target in data set [3] is Plasminogen (Homo sapiens, UniProt P00747). The experiment in a line: Inhibitory activity against plasmin.
Sequence of Plasminogen (P00747 97-580 limits assumed): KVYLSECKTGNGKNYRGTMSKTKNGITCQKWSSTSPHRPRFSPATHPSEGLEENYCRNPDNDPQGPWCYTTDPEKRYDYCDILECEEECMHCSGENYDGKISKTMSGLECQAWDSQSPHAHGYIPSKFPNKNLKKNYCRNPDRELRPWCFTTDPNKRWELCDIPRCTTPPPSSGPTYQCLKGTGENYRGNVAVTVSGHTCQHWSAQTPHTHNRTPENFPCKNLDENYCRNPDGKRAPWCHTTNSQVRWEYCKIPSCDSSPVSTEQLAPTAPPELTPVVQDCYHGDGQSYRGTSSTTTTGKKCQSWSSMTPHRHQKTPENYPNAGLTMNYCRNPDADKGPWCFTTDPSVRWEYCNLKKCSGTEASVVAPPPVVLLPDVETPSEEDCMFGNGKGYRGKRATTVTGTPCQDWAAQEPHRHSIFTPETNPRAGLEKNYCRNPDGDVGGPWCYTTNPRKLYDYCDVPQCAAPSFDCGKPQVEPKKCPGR
Sequence of Plasminogen (P00747 581-810 limits assumed): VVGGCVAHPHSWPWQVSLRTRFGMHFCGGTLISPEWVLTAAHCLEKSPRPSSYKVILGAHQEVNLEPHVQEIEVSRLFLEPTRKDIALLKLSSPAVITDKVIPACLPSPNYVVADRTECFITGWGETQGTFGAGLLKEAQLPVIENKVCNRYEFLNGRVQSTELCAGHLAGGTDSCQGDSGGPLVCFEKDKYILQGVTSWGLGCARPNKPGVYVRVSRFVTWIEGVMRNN
In data set [4] the target is T1, Serine protease 1 (Bos taurus, UniProt P00760).
T1 sequence (P00760 whole entry): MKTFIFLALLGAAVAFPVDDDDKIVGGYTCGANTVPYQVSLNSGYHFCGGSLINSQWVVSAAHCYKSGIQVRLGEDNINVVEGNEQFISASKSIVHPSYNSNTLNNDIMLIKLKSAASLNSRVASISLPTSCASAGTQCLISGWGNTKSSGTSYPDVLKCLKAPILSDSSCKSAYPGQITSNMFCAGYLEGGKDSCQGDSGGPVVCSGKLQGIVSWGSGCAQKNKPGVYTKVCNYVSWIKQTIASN
The experiment in a line: Inhibitory activity against bovine trypsin.

The target in data set [5] is Tissue-type plasminogen activator (Homo sapiens, UniProt P00750). The experiment in a line: Inhibitory activity against tissue type plasminogen activator (t-PA).
Sequence of Tissue-type plasminogen activator (P00750 whole entry): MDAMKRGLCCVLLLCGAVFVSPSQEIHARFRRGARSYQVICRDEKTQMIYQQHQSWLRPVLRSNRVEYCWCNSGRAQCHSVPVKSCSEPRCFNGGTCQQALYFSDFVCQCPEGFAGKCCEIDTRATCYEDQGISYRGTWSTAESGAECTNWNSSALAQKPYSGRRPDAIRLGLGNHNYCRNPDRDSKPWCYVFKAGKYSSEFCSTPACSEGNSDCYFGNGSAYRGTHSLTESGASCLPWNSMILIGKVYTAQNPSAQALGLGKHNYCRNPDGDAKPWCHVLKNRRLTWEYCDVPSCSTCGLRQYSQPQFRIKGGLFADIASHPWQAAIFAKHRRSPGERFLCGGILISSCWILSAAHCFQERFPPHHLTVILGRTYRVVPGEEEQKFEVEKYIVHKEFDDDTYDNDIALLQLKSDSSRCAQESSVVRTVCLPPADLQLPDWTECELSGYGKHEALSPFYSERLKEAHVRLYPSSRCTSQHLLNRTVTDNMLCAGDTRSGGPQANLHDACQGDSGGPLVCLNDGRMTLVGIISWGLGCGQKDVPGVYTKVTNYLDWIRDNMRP
Data set [6] can be described thus: Area under was determined at a dose of 30 mg/kg. Details: dose 30 mg/kg. Particulars: in vivo. In kind it is ADME, organism-based.
A short description of data set [7]: Cmax at a dose of […] mg/kg in rat. In kind it is ADME, organism-based. Particulars: in vivo, 30 mg/kg.
The nature of data set [8]: Tmax at a dose of 30 mg/kg in rat. It counts as ADME, organism-based. Particulars: in vivo. Also noted: dose 30 mg/kg.

Sequence of Coagulation factor X (P00742 41-179 limits assumed): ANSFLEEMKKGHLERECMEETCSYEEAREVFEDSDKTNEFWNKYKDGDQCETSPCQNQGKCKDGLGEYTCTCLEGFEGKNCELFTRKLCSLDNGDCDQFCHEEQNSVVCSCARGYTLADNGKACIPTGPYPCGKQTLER
Sequence of Coagulation factor X (P00742 235-488 limits assumed): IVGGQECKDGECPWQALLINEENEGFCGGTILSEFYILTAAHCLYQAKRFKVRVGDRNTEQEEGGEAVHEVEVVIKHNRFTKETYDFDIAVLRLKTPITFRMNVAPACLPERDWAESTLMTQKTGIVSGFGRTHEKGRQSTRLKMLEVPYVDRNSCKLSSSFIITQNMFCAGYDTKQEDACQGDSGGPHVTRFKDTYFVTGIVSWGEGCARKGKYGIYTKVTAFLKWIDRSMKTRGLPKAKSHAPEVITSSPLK

`CN(C(=O)[C@H](CC#Cc1ccc(N)c(N)c1)NS(=O)(=O)c1ccc2ccccc2c1)C1CCCC1` came in with a Ki in data set [1] of 0.22 µM.

For the molecule `CNc1ncc(C#CC[C@H](NS(=O)(=O)c2ccc3ccccc3c2)C(=O)N(C)C2CCCC2)cn1`, in data set [1], the affinity, expressed as Ki, was 3.5 µM. Against the preceding molecule, the Ki is about 16-fold higher.

On to `CN(C(=O)[C@H](CC#Cc1ccncc1)NS(=O)(=O)c1ccc2ccccc2c1)C1CCCC1`, for which, in data set [1], the inhibitory constant (Ki) was greater than 20 µM.

In data set [1], `CN(C(=O)[C@H](CC#Cc1cnc(N)s1)NS(=O)(=O)c1ccc2ccccc2c1)C1CCCC1` registered an inhibition constant (Ki) of 4.5 µM.

Consider `CN(C(=O)[C@H](CC#Cc1ccc(CN)cc1)NS(=O)(=O)c1ccc2ccccc2c1)C1CCCC1`, for which the Ki in data set [1] came out at 3.4 µM.

Turning to `CNc1ccc(C#CC[C@H](NS(=O)(=O)c2ccc3ccccc3c2)C(=O)N(C)C2CCCC2)cc1`, the Ki in data set [2] is 8.7 µM; in data set [3], greater than 200 µM; in data set [1] it was 0.019 µM; in data set [4] it was 37 µM; in data set [5] it was greater than 200 µM.

With `CCCc1ccc(S(=O)(=O)N[C@@H](CC#Cc2ccc(NC)cc2)C(=O)N(C)C2CCCC2)cc1`, the inhibition constant Ki in data set [2] is 6.6 µM; in data set [3], greater than 200 µM; in data set [1] it was 0.008 µM; in data set [4] it was greater than 30 µM; in data set [5], 190 µM.

Molecule `CN(C(=O)[C@H](CC#Cc1cccnc1)NS(=O)(=O)c1ccc2ccccc2c1)C1CCCC1` gave an inhibition constant (Ki) in data set [1] of 2.5 µM.

As for `CNc1ccc(C#CC[C@H](NS(=O)(=O)c2ccc3ccccc3c2)C(=O)N(C)C2CCCC2)cc1N`, the figures for the Ki in data set [1] and in data set [4] were 0.04 µM and 32 µM, respectively.

Regarding `CCNc1ccc(C#CC[C@H](NS(=O)(=O)c2ccc3ccccc3c2)C(=O)N(C)C2CCCC2)cc1`, in data set [1], the affinity corresponds to a Ki of 49 µM. In other words, the double-digit micromolar range.

`CN(C(=O)[C@H](CC#Cc1ccc(N)nc1)NS(=O)(=O)c1ccc2ccccc2c1)C1CCCC1`: the Ki in data set [1] stood at 1.5 µM.

Regarding `CN(C(=O)[C@H](CC#Cc1cnc[nH]1)NS(=O)(=O)c1ccc2ccccc2c1)C1CCCC1`, in data set [1], the Ki turned out to be 3 µM.

`CN(C(=O)[C@H](CC#Cc1cccc(N)c1)NS(=O)(=O)c1ccc2ccccc2c1)C1CCCC1` showed an inhibitory constant (Ki) in data set [1] of 2.2 µM.

For the molecule `CN(C(=O)[C@H](CC#Cc1ccc(NN)cc1)NS(=O)(=O)c1ccc2ccccc2c1)C1CCCC1`, the inhibition constant Ki in data set [1] came to 1.5 µM.

On to `CNc1ccc(C#CC[C@H](NS(=O)(=O)c2ccc3c(c2)CCCC3)C(=O)N(C)C2CCCC2)cc1`, for which the exposure (AUC) in data set [6] stood at 4.6 µM·h. In data set [7], this molecule registered a Cmax of 1800 nM. Also, the Tmax in data set [8] is 45 min. In addition, the inhibitory constant (Ki) in data set [2] was 1.9 µM; in data set [3] it was greater than 200 µM; in data set [1] it was 0.005 µM; in data set [4], greater than 30 µM; in data set [5], 200 µM.

In the case of `CN(C(=O)[C@H](CC#Cc1cnc(N)nc1)NS(=O)(=O)c1ccc2ccccc2c1)C1CCCC1`, in data set [1], the inhibition constant (Ki) is greater than 20 µM.

As for `CNc1ccc(C#CC[C@H](NS(=O)(=O)c2ccc3cc(OC)ccc3c2)C(=O)N(C)C2CCCC2)cc1`, the Ki was 14 µM in data set [2]; greater than 200 µM in data set [3]; 0.027 µM in data set [1]; greater than 30 µM in data set [4]; greater than 200 µM in data set [5].

In the case of `CNc1ccc(C#CC[C@H](NS(=O)(=O)c2ccc3ccccc3c2)C(=O)N(C)C2CCCC2)cn1`, the Ki in data set [1] was 0.3 µM.

On to `CN(C(=O)[C@H](CC#Cc1ccc(N)cc1)NS(=O)(=O)c1ccc2ccccc2c1)C1CCCC1`, for which, in data set [1], affinity was put at a Ki of 0.29 µM.

The Ki is a measure of affinity in units of concentration, obtained from inhibition or displacement. For orientation: AUC means concentration integrated over time. Lower therefore signals low exposure. What is called Cmax is the maximum level reached in the sampled fluid or tissue. Broadly, the Tmax is the time from dosing to the highest level.
